This test concerns the target F508del-CFTR (Homo sapiens, UniProt P13569, DEL508-508). Put plainly: HS-YFP kinetic fluorescence (iodide quenching rate) assay in CFBE41o− cells. The format is cell-based. On the set-up: expressed in transfected cells; host or cells: CFBE41o- cells with expression of F508del-CFTR and HS-YFP (generated as in Sondo et al. 2011). Conditions: Table 1; compound at 10 μM plus VX-809; (QRTOT − QRVX)/QRVX, HS-YFP assay. On the procedure:
CFBE41o- cells, with expression of F508del-CFTR and halogen-sensitive fluorescent protein, were generated as previously described (Sondo E, et al. Am J Physiol. 2011, 301, […]-[…]). For the test, the cells were seeded in 96-well microplates using a culture medium consisting of DMEM and Ham's F12 (1:1) supplemented with 10% foetal bovine serum. After 24 hours from seeding, the cells were treated for another 24 hours with the test compounds dissolved in the culture medium at the desired concentrations. As a negative control, the solvent of the compounds (dimethyl sulfoxide, DMSO) dissolved in the medium with the same dilution ratio (final percentage of DMSO:0.1-0.2%) was used. As a positive control, the corrector VX-809 (Selleck Chemicals, […]) was used at a concentration of 1 μM. After treatment, the medium with the compounds was removed and the cells were stimulated with forskolin (Sigma-Aldrich, F6886) 20 μM plus genistein (Sigma-Aldrich, G6649) 50 μM (in 60 μl of PBS saline) to maximally activate the CFTR channels present in the membrane. In a microplate reader (FLUOstar-Omega, BMG) the fluorescence of the cells in each well was read for 14 seconds, with an injection of 165 μl of a iodide-enriched saline (modified PBS where NaCl, 137 mM, has been replaced with the same concentration of NaI). The iodide transport activity in each well was evaluated by subtraction of the background fluorescence (measured in a well without cells), subsequent normalization with respect to the initial fluorescence and finally by interpolation of the fluorescence quenching phase with an exponential function that allows the derivation of the maximum slope (quenching rate, QR). The activity of the synthesized compounds was initially evaluated on the CFBE41o- cell line with expression of the mutated F508del-CFTR protein described above (Sondo E, et al. Am J Physiol. 2011, 301, […]-[…]). For this purpose, a functional assay based on the fluorescent YFP protein sensitive to halides, HS-YFP, was used (Galietta L J, et al. J Biol Chem. 2001, 276, 19723-19728). The fluorescence of the HS-YFP protein is turned off by iodide. Therefore, if exposed to a solution containing iodide, cells with HS-YFP expression show a quenching speed of the fluorescence which depends on the presence and activity of anionic channels. Under control conditions, the mutated CFTR protein presents a serious defect of stability and maturation, so it remains trapped in the endoplasmic reticulum not reaching the cell surface in enough quantity. In the HS-YFP-based assay, this defect results in a low anion transport capacity and therefore in a low quenching rate (QR). Treatment for a prolonged time (e.g. 24 hours) with a corrector determines an improvement in protein maturation with an increase in the number of CFTR channels present in the membrane and therefore an increase in the flux of iodide and QR. In a first phase, the authors screened about 200 heterocyclic molecules with various nitrogenated tricyclic scaffolds. Conditions previously described have been used for screening (Sondo E, et al. Am J Physiol. 2011, 301, […]-[…]) and reported herein in the Materials and Methods section. A threshold equal to the average value plus three times the standard deviation of the QR of wells without compounds (only DMSO in the culture medium) was used as a criterion for the selection of active compounds.

Sequence of F508del-CFTR (P13569 with tags, fused parts or gaps DEL508-508): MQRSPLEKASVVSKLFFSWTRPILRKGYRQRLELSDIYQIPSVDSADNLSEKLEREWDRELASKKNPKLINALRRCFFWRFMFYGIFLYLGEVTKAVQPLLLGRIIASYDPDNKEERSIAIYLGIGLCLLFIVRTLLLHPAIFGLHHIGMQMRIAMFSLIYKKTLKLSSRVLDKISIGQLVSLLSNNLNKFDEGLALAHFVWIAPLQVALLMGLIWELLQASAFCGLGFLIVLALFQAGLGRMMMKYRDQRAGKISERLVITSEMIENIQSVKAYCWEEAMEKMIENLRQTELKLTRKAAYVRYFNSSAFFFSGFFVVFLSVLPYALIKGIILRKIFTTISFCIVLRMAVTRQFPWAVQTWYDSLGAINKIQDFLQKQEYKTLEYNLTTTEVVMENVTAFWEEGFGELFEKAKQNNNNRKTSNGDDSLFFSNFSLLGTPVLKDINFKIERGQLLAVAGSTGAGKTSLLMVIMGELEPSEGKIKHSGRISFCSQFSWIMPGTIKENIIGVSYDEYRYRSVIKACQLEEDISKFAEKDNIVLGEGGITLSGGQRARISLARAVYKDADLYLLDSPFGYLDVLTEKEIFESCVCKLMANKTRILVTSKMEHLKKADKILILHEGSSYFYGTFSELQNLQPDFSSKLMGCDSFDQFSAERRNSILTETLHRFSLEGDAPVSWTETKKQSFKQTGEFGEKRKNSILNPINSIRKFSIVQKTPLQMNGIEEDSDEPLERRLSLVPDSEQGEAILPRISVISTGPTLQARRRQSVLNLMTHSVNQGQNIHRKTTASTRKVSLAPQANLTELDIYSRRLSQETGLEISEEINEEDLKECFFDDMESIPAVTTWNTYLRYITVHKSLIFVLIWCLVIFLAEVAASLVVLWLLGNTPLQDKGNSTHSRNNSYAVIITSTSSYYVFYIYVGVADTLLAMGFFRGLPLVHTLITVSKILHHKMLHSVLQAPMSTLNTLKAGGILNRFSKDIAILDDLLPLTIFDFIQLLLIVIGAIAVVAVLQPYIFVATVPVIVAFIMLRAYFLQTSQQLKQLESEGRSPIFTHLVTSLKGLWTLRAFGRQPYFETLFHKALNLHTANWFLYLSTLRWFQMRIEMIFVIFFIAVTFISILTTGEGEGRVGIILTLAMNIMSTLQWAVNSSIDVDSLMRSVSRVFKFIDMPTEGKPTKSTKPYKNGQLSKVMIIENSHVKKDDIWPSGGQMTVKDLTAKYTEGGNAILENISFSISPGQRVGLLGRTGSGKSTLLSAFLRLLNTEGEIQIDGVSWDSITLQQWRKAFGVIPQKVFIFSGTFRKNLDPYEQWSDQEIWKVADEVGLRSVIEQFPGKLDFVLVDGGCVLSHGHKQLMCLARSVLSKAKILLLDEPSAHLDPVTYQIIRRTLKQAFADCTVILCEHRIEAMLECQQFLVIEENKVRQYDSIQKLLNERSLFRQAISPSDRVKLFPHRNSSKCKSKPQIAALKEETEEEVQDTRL

`CCOC(=O)c1c(I)c2c(n1Cc1ccc(C)cc1)-c1[nH]c(=O)c(S(=O)(=O)c3ccccc3)cc1CC2` [PP077, Ethyl 7-(benzenesulfonyl)-3-iodo-1-[(4-methylphenyl)methyl]-8-oxo-4,5,8,9-tetrahydro-1H-pyrrolo[3,2-h]quinoline-2-carboxylate]: the “AI (%) additivity index” value is given as 202%. For the compound `Cc1ccc(Cn2c(C(=O)O)cc3c2-c2[nH]c(=O)c(S(=O)(=O)c4ccccc4)cc2CC3)cc1` [PP078, 7-(Benzenesulfonyl)-1-[(4-methylphenyl)methyl]-8-oxo-4,5,8,9-tetrahydro-1H-pyrrolo[3,2-h]quinoline-2-carboxylic acid], the “AI (%) additivity index” value is given as 37%. The value for `Cc1ccc(Cn2c(C(=O)O)c(Br)c3c2-c2[nH]c(=O)c(S(=O)(=O)c4ccccc4)cc2CC3)cc1` [PP079, 7-(Benzenesulfonyl)-3-bromo-1-[(4-methylphenyl)methyl]-8-oxo-4,5,8,9-tetrahydro-1H-pyrrolo[3,2-h]quinoline-2-carboxylic acid] was 38%; that for `Cc1cccc(Cn2c(C(=O)O)c(Br)c3c2-c2[nH]c(=O)c(S(=O)(=O)c4ccccc4)cc2CC3)c1` [PP081, 7-(Benzenesulfonyl)-3-bromo-1-[(3-methylphenyl)methyl]-8-oxo-4,5,8,9-tetrahydro-1H-pyrrolo[3,2-h]quinoline-2-carboxylic acid] was 20%.

Consider `Cc1cccc(Cn2c(C(N)=O)cc3c2-c2[nH]c(=O)c(S(=O)(=O)c4ccccc4)cc2CC3)c1` [PP082, 7-(Benzenesulfonyl)-1-[(3-methylphenyl)methyl]-8-oxo-4,5,8,9-tetrahydro-1H-pyrrolo[3,2-h]quinoline-2-carboxamide], for which the “AI (%) additivity index” value is 31%.

Take `Cc1cccc(Cn2c(C(=O)NC(C)C)cc3c2-c2[nH]c(=O)c(S(=O)(=O)c4ccccc4)cc2CC3)c1` [PP083, 7-(Benzenesulfonyl)-1-[(3-methylphenyl)methyl]-8-oxo-N-(propan-2-yl)-4,5,8,9-tetrahydro-1H-pyrrolo[3,2-h]quinoline-2-carboxamide]: the “AI (%) additivity index” value is listed as 53%. For `Cc1cccc(Cn2c(C(=O)NC3CC3)cc3c2-c2[nH]c(=O)c(S(=O)(=O)c4ccccc4)cc2CC3)c1` [PP084, 7-(Benzenesulfonyl)-N-cyclopropyl-1-[(3-methylphenyl)methyl]-8-oxo-4,5,8,9-tetrahydro-1H-pyrrolo[3,2-h]quinoline-2-carboxamide], the “AI (%) additivity index” value is 10%. For `Cc1ccc(Cn2c(C(=O)NC(C)C)c(Br)c3c2-c2[nH]c(=O)c(S(=O)(=O)c4ccccc4)cc2CC3)cc1` [PP086, 7-(Benzenesulfonyl)-3-bromo-1-[(4-methylphenyl)methyl]-8-oxo-N-(propan-2-yl)-4,5,8,9-tetrahydro-1H-pyrrolo[3,2-h]quinoline-2-carboxamide] the value was 116%; for `Cc1ccc(Cn2c(C(N)=O)c(Br)c3c2-c2[nH]c(=O)c(S(=O)(=O)c4ccccc4)cc2CC3)cc1` [PP089, 7-(Benzenesulfonyl)-3-bromo-1-[(4-methylphenyl)methyl]-8-oxo-4,5,8,9-tetrahydro-1H-pyrrolo[3,2-h]quinoline-2-carboxamide], 11%; for `Cc1cccc(Cn2c(C(=O)O)cc3c2-c2[nH]c(=O)c(S(=O)(=O)c4ccccc4)cc2CC3)c1` [PP090, 7-(Benzenesulfonyl)-1-[(3-methylphenyl)methyl]-8-oxo-4,5,8,9-tetrahydro-1H-pyrrolo[3,2-h]quinoline-2-carboxylic acid], 36%.

For `Cc1cccc(Cn2c(C(=O)NC(C)C)c(Br)c3c2-c2[nH]c(=O)c(S(=O)(=O)c4ccccc4)cc2CC3)c1` [PP091, 7-(Benzenesulfonyl)-3-bromo-1-[(3-methylphenyl)methyl]-8-oxo-N-(propan-2-yl)-4,5,8,9-tetrahydro-1H-pyrrolo[3,2-h]quinoline-2-carboxamide], the “AI (%) additivity index” value turned out to be 208%. `Cc1cccc(Cn2c(C(=O)NC3CC3)cc3c2-c2[nH]c(=O)c(S(=O)(=O)c4ccccc4)cc2CC3)c1` [PP092, 7-(Benzenesulfonyl)-N-cyclopropyl-1-[(3-methylphenyl)methyl]-8-oxo-4,5,8,9-tetrahydro-1H-pyrrolo[3,2-h]quinoline-2-carboxamide]: the “AI (%) additivity index” value came out at 52%. For the compound `Cc1cccc(Cn2c(C(N)=O)cc3c2-c2[nH]c(=O)c(S(=O)(=O)c4ccccc4)cc2CC3)c1` [PP093, 7-(Benzenesulfonyl)-1-[(3-methylphenyl)methyl]-8-oxo-4,5,8,9-tetrahydro-1H-pyrrolo[3,2-h]quinoline-2-carboxamide], the “AI (%) additivity index” value was found to be 25%.

On to `Cc1ccc(Cn2c(C(=O)O)cc3c2-c2[nH]c(=O)c(S(=O)(=O)c4ccccc4)cc2CC3)cc1C` [PP094, 7-(Benzenesulfonyl)-1-[(3,4-dimethylphenyl)methyl]-8-oxo-4,5,8,9-tetrahydro-1H-pyrrolo[3,2-h]quinoline-2-carboxylic acid], for which the “AI (%) additivity index” value is listed as 47%. In the case of `Cc1ccc(Cn2c(C(=O)O)c(Br)c3c2-c2[nH]c(=O)c(S(=O)(=O)c4ccccc4)cc2CC3)cc1C` [PP095, 7-(Benzenesulfonyl)-3-bromo-1-[(3,4-dimethylphenyl)methyl]-8-oxo-4,5,8,9-tetrahydro-1H-pyrrolo[3,2-h]quinoline-2-carboxylic acid], the “AI (%) additivity index” value is reported as 11%. As for `CC(C)NC(=O)c1cc2c(n1Cc1ccc(Br)cc1)-c1[nH]c(=O)c(S(=O)(=O)c3ccccc3)cc1CC2` [PP096, 7-(Benzenesulfonyl)-1-[(4-bromophenyl)methyl]-8-oxo-N-(propan-2-yl)-4,5,8,9-tetrahydro-1H-pyrrolo[3,2-h]quinoline-2-carboxamide], the “AI (%) additivity index” value is 3%.

Regarding `CC(C)NC(=O)c1c(Br)c2c(n1Cc1ccc(Br)cc1)-c1[nH]c(=O)c(S(=O)(=O)c3ccccc3)cc1CC2` [PP097, 7-(Benzenesulfonyl)-3-bromo-1-[(4-bromophenyl)methyl]-8-oxo-N-(propan-2-yl)-4,5,8,9-tetrahydro-1H-pyrrolo[3,2-h]quinoline-2-carboxamide], the “AI (%) additivity index” value was 99%. The value for `O=C(NC1CC1)c1cc2c(n1Cc1ccc(Br)cc1)-c1[nH]c(=O)c(S(=O)(=O)c3ccccc3)cc1CC2` [PP098, 7-(Benzenesulfonyl)-1-[(4-bromophenyl)methyl]-N-cyclopropyl-8-oxo-4,5,8,9-tetrahydro-1H-pyrrolo[3,2-h]quinoline-2-carboxamide] was 4%; that for `O=C(NC1CC1)c1c(Br)c2c(n1Cc1ccc(Br)cc1)-c1[nH]c(=O)c(S(=O)(=O)c3ccccc3)cc1CC2` [PP099, 7-(Benzenesulfonyl)-3-bromo-1-[(4-bromophenyl)methyl]-N-cyclopropyl-8-oxo-4,5,8,9-tetrahydro-1H-pyrrolo[3,2-h]quinoline-2-carboxamide] was 82%; that for `Cc1cccc(Cn2c(C(=O)NS(=O)(=O)c3ccccc3)c(Br)c3c2-c2[nH]c(=O)c(S(=O)(=O)c4ccccc4)cc2CC3)c1` [PP100, N,7-di(benzenesulfonyl)-3-bromo-1-[(3-methylphenyl)methyl]-8-oxo-4,5,8,9-tetrahydro-1H-pyrrolo[3,2-h]quinoline-2-carboxamide] was 47%. The value for `Cc1cccc(Cn2c(C(=O)NC(C)(C)C)c(Br)c3c2-c2[nH]c(=O)c(S(=O)(=O)c4ccccc4)cc2CC3)c1` [PP101, 7-(Benzenesulfonyl)-3-bromo-N-tert-butyl-1-[(3-methylphenyl)methyl]-8-oxo-4,5,8,9-tetrahydro-1H-pyrrolo[3,2-h]quinoline-2-carboxamide] was 249%.

Source of the values: patent US12410164B2, “Heterocyclic compounds and medical use thereof” (FONDAZIONE TELETHON, priority 2018, dated 2025).
